# Test results from ChEMBL document CHEMBL1132798 (Bioorg Med Chem Lett, 2000).
# Active and inactive are the calls of the source. The calls are words filed in the database; no cut-off is given here.
# How the values were obtained:
# [1] = species on record: Mus musculus; test: Compound was evaluated for antinociceptive activity in mouse; format: functional
# [2] = species on record: Mus musculus; test: Compound was evaluated for antinociceptive activity in mouse using tail flick vs morphine assay; format: functional
# [3] = species on record: Mus musculus; test: Compound was evaluated for antinociceptive activity in mouse; IA means inactive; format: functional, organism-based
# [4] = target: Delta-type opioid receptor (Rattus norvegicus, UniProt P33533); test: Compound was evaluated for its ability to displace [3H]p-CI-DPDPE in C6 glioma cells expressing the cloned Opioid receptor delta 1; format: cell-based
# [5] = target: Kappa-type opioid receptor (Rattus norvegicus, UniProt P34975); test: Compound was evaluated for its ability to displace [3H]U-69593 in CHO cells expressing the cloned Opioid receptor kappa 1; format: cell-based
# [6] = target: Mu-type opioid receptor (Rattus norvegicus, UniProt P33535); test: Compound was evaluated for its ability to displace [3H]DAMGO in C6 glioma cells expressing the cloned Opioid receptor mu 1; format: cell-based
# [7] = target: Opioid receptors; mu & delta (Homo sapiens) (UniProt P41143+P35372); test: Ratio of binding affinity to mu receptor to that of delta receptor; format: protein assay
# [8] = species on record: Mus musculus; test: Compound was evaluated for antinociceptive activity in mouse using hot plate assay; Inactive; format: functional, organism-based
# [9] = species on record: Mus musculus; test: Compound was evaluated for antinociceptive activity in mouse using paraphenylquinone assay; Inactive; format: functional, organism-based
# [10] = species on record: Mus musculus; test: Compound was evaluated for antinociceptive activity in mouse using tail flick assay; Inactive; format: functional, organism-based
# [11] = species on record: Mus musculus; test: Compound was evaluated for antinociceptive activity in mouse using tail flick vs morphine assay; Inactive; format: functional, organism-based
# [12] = species on record: Mus musculus; test: Compound was evaluated for antinociceptive activity in mouse using hot plate assay; format: functional
# [13] = species on record: Mus musculus; test: Compound was evaluated for antinociceptive activity in mouse using paraphenylquinone assay; format: functional
# [14] = species on record: Mus musculus; test: Compound was evaluated for antinociceptive activity in mouse using tail flick assay; format: functional
# Delta-type opioid receptor, sequence (P33533 whole entry): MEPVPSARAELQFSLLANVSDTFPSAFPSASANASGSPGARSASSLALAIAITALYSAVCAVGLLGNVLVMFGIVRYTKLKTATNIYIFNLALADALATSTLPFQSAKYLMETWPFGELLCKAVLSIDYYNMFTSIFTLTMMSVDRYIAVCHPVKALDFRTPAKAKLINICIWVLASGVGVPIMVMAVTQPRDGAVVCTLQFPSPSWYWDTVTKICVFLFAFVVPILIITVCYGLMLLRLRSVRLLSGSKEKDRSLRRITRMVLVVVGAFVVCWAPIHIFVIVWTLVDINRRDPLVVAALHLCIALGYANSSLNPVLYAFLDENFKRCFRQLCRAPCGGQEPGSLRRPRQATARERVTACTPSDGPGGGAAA
# Kappa-type opioid receptor, sequence (P34975 whole entry): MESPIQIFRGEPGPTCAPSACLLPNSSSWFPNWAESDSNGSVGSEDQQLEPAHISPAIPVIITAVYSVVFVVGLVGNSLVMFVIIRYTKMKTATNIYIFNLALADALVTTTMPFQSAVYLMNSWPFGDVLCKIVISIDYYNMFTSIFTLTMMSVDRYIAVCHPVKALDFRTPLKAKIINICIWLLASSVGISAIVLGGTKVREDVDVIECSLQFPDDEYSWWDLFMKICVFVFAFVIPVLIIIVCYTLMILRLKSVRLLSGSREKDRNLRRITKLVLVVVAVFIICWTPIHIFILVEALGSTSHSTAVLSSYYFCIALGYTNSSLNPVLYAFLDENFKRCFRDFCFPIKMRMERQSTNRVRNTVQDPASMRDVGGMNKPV
# Opioid receptors; mu & delta (Homo sapiens), sequence (P35372 whole entry, looked up): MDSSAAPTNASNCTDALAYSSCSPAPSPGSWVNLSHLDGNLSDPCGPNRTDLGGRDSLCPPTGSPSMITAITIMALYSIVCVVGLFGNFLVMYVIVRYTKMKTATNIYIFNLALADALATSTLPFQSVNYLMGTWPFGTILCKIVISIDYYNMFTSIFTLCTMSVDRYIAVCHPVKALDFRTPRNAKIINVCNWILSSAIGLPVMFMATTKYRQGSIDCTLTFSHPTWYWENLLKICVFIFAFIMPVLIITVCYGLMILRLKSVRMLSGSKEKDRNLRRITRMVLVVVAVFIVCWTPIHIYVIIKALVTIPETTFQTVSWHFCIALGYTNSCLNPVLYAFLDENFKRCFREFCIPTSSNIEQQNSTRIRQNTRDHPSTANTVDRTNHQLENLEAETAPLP
# Opioid receptors; mu & delta (Homo sapiens), sequence (P41143 whole entry, looked up): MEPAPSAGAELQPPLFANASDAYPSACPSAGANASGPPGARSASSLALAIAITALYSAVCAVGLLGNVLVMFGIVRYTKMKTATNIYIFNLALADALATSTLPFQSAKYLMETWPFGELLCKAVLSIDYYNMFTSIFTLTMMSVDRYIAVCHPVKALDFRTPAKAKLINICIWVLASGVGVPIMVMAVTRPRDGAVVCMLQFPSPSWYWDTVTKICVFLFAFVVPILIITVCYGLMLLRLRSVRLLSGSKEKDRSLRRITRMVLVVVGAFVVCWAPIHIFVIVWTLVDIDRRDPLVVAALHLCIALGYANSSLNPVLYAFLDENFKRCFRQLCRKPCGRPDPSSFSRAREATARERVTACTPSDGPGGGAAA
# Mu-type opioid receptor, sequence (P33535 whole entry): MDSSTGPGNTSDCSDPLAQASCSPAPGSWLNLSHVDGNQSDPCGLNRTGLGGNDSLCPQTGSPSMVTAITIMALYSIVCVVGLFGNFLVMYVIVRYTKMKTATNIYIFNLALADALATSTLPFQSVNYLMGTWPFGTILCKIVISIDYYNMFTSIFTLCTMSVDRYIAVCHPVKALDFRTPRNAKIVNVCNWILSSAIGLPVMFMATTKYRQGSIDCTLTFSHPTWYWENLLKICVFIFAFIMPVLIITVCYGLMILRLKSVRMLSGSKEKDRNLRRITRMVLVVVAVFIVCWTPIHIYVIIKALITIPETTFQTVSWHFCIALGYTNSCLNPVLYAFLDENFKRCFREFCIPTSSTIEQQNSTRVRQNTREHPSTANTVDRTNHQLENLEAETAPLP
smiles,measurement,setting,value
C=CCN1CC[C@]23c4c5ccc(O)c4O[C@H]2C(=O)CC[C@@]3(O)[C@H]1C5 [NALOXONE],AD50,[1],0.1
same,Activity,[2],0.04 mg/kg
Oc1ccc2c3c1O[C@H]1c4[nH]c5c(c4C[C@@]4(O)[C@@H](C2)N(CC2CC2)CC[C@]314)C[C@@]1(O)[C@H]2Cc3ccc(O)c4c3[C@@]1(CCN2CC1CC1)[C@H]5O4,Activity,[3],inactive
Oc1ccc2c3c1OC1c4[nH]c5ccccc5c4C[C@@]4(O)[C@@H](C2)N(Cc2ccccc2)CCC314 (some centres undefined),Ki,[4],115 nM
same,Ki,[5],134 nM
same,Ki,[6],5330 nM
same,Ratio,[7],46
Oc1ccc2c3c1OC1c4[nH]c5ccccc5c4C[C@@]4(O)[C@@H](C2)N(CC2CCCCC2)CCC314 (some centres undefined),Activity,[8],inactive
same,Activity,[9],inactive
same,Activity,[10],inactive
same,Activity,[11],inactive
same,Ki,[4],94.5 nM
same,Ki,[5],1110 nM
same,Ki,[6],1920 nM
same,Ratio,[7],20
CCCN(CC1CC1)C1Cc2ccc(O)c3c2C2C(O3)C(NC(=O)/C=C/C(=O)OC)CC[C@]21O (some centres undefined),AD50,[1],1.25 ug brain-1
Oc1ccc2c3c1O[C@H]1c4[nH]c5ccccc5c4C[C@@]4(O)[C@@H](C2)N(CC2CC2)CC[C@]314 [NALTRINDOLE],Activity,[3],inactive
same,Ki,[4],0.04 nM
same,Ki,[5],5.8 nM
Oc1ccc2c3c1OC1c4[nH]c5ccccc5c4C[C@@]4(O)[C@@H](C2)N(CCC2CCCCC2)CCC314 (some centres undefined),Activity,[12],2.42 mg/kg
same,Activity,[13],0.39 mg/kg
same,Activity,[14],3.86 mg/kg
same,Ki,[4],181 nM
same,Ki,[5],378 nM
same,Ki,[6],7.3 nM
same,Ratio,[7],0
CN1CC[C@]23c4c5ccc(O)c4O[C@H]2[C@@H](O)C=C[C@H]3[C@H]1C5.CN1CC[C@]23c4c5ccc(O)c4O[C@H]2[C@@H](O)C=C[C@H]3[C@H]1C5.O=S(=O)(O)O,Activity,[12],3.1 mg/kg
same,Activity,[13],0.4 mg/kg
same,Activity,[14],0.73 mg/kg
